Data from patent publication US20110311651A1, “CA[…] THE TREATMENT OF OCULAR CANCER” (priority 2008, published 2011).
Entries after “also recorded” stand apart in the source; their conditions may differ.

Experiments:
Y79 cells [1] = assay: Cytotoxicity assay for dose response in 384-well plates (Alamar Blue), Y79; format: cell-based, human
Protocol: (§1) Cytotoxicity assay for dose response in 384-well microtiter plates. Dose response studies were performed in 384-well microtiter plates (#3712, Corning Inc., Corning, N.Y.) according to the following protocol: cells were added in 45 μL medium to the screening plates using Flexdrop. After 72 h incubation was added 5 μL Alamar Blue using Flexdrop. The cells were then incubated for another 24 h, and the fluorescence intensity was read on LEADseeker™ Multimodality Imaging System as previously described. To calculate the IC50 for each compound toward each cell line, the dose response was assessed in duplicate and using 12 point doubling dilutions with 100 μM compound concentration as the upper limit. The dose response curve for each set of data was fitted separately, and the two IC50 values obtained were averaged.
Compared potency of the cardenolide ouabain with known agents in cell models of retinoblastoma. The potency of a representative of the cardenolide scaffold was compared to known effective agents against retinoblastoma. Namely, the dose response of the drug ouabain was tested with the human retinoblastoma cell lines Y79 and RB355, and its potency was compared to vincristine, etoposide, carboplatin, cisplatin, nutlin-3 and calcitriol. […] The activity of vincristine toward Y79 cells reached a plateau at 50% inhibition, which prevented the IC50 for this compound from being calculated.

RB355 cells = assay: Cytotoxicity assay for dose response in 384-well plates (Alamar Blue), RB355; format: cell-based, human
Protocol: as §1
To explore the structure activity relationship (SAR) within this chemical class a collection of 35 cardenolides and derivatives was constituted. The dose response for each compound toward the ocular cancer cell lines Y79, RB355, WERI-Rb-1 and C918 was then assessed.
Compared potency of the cardenolide ouabain with known agents in cell models of retinoblastoma. The potency of a representative of the cardenolide scaffold was compared to known effective agents against retinoblastoma. […]

Y79 cells [2] = assay: Apoptosis assay, immunofluorescence detection of activated Caspase-3; format: cell-based, human; conditions: 0.5 μM, 72 h, 1% DMSO
Protocol: Apoptosis assay. Y79 cells seeded in culture medium in a 24-well plate were treated with either vincristine, etoposide, or ouabain at various concentrations in 1% DMSO (v/v) or with 1% DMSO (v/v) alone as a carrier control for 48 h or 72 h. After a wash in PBS, cells were fixed in solution in […] in PBS for 10 minutes. After a wash in PBS, cells for each condition were dried on a glass slide and washed once with water.
The immunofluorescence detection of cleaved Caspase-3 was performed at the Memorial Sloan-Kettering Cancer Center Molecular Cytology Core Facility using a Discovery XT processor (Ventana Medical Systems, Tucson, Ariz.). A rabbit polyclonal Cleaved Caspase 3 (Asp 175) antibody (#9661 L, Cell Signaling, Danvers, Mass.) was used at a concentration of 0.1 μg/ml. […] Automated fluorescence imaging of the green channel (activated Caspase-3) and blue channel (nuclei) was performed using an IN Cell Analyzer 1000 (GE Healthcare).
Compared effect of ouabain and clinical agents on apoptosis of Y79 cells. […] The drug concentrations used in this experiment were previously determined according to a pilot study where treated Y79 cells were live-stained with the dye Yo-Pro, which stains apoptic cells (Idziorek et al., J. Immunol. Methods 1995, 185, 249-258). […] Baseline Caspase-3 activation was evaluated with control Y79 cells treated with 1% DMSO (v/v) (FIG. 6A).

Y79 cells [3] = assay: Pilot study, live staining of treated cells with the dye Yo-Pro; format: cell-based, human; conditions: concentrations higher than 0.5 μM
Protocol: Compared effect of ouabain and clinical agents on apoptosis of Y79 cells. To determine whether the anti-proliferative effects of the drug ouabain was mediated by induction of apoptosis, immunostaining of activated Caspase-3 in Y79 cells treated with cardenolides or known agents for retinoblastoma for 72 h (green channel) was performed; treated cells were also stained with Hoechst to image the nuclei (blue channel) (FIG. 6). The drug concentrations used in this experiment were previously determined according to a pilot study where treated Y79 cells were live-stained with the dye Yo-Pro, which stains apoptic cells (Idziorek et al., J. Immunol. Methods 1995, 185, 249-258). Based on this study, 72 h was identified as the optimum incubation time and drug concentrations were selected that maximized the number of apoptotic cells (data not shown). Baseline Caspase-3 activation was evaluated with control Y79 cells treated with 1% DMSO (v/v) (FIG. 6A).

[4] = Body weight and signs of toxicity in the xenograft study; format: in vivo, mouse; conditions: throughout the treatment period
Protocol: In vivo studies. Subcutaneous xenograft experiments were performed at the Memorial Sloan-Kettering Cancer Center Antitumor Assessment Core Facility. Y79LUC cells (10E6) embedded in matrigel (BD Biosciences, San Jose, Calif.) were injected subcutaneously in the right flank of 8-weeks old ICR/SCID male mice. Treatment started when the tumors reached approximately 250 mm^3. The mice were randomized into three groups and two mice per group were treated with either 10% DMSO (v/v) (control group), 1.5 mg/kg ouabain or 15 mg/kg ouabain. Treatment was performed by continuous subcutaneous infusion using osmotic minipumps (#1007D, Alzet, Cupertino, Calif.). Tumor size was measured externally two times a week with a caliper. Body weight of each mouse was monitored as well as other signs of toxicity throughout the treatment period. Bioluminescent imaging of the tumors was performed once a week and prior to sacrifice as follows: mice were anesthetized by isofluorane inhalation and injected with D-luciferin at 50 mg/Kg (Xenogen) intraperitoneally; photonic emission was measured with the In Vivo Imaging System (IVIS 200, Xenogen) with a collection time of 5 seconds.
Assessment of the in vivo efficacy of ouabain in a xenograft model of retinoblastoma. The therapeutic effect of the drug ouabain in a mouse xenograft model of retinoblastoma was also investigated. […]

Structure (SMILES)	activity toward Y79 cells below 100 μM (Y79 cells [1])	activity toward RB355 cells below 100 μM (RB355 cells)	apoptosis (activated Caspase-3) compared to baseline (Y79 cells [2])	effect on Y79 cells in the Yo-Pro pilot study (Y79 cells [3])	toxicity ([4]; 15 mg/kg)	average body weight of treated versus control animals ([4]; 1.5 and 15 mg/kg)
C=C1/C(=C\C=C2/CCC[C@]3(C)[C@@H]([C@H](C)CCCC(C)(C)O)CC[C@@H]23)C[C@@H](O)C[C@@H]1O [calcitriol]	did not demonstrate any significant activity	neither caboplatin or calcitriol had any significant activity	–	–	–	–
C[C@@H]1O[C@@H](O[C@H]2C[C@@H](O)[C@]3(CO)[C@H]4[C@H](O)C[C@]5(C)[C@@H](C6=CC(=O)OC6)CC[C@]5(O)[C@@H]4CC[C@]3(O)C2)[C@H](O)[C@H](O)[C@H]1O [ouabain]	–	–	still induced significant apoptosis	erradicated Y79 cells	did not induce any significant toxicity; also recorded: no signs of toxicity were observed	did not differ significantly
N.N.[Cl][Pt][Cl] [cisplatin]	did not demonstrate any significant activity	–	–	–	–	–
N.N.O=C([O-])C1(C(=O)[O-])CCC1.[Pt+2] [Carboplatin, carboplatin]	did not demonstrate any significant activity	neither caboplatin or calcitriol had any significant activity	–	–	–	–
